Source: patent US20240189257A1, “COMPOSITIONS AND METHODS FOR MANAGING NEPHROPATHY” (SAMI-SABINSA GROUP LIMITED, priority 2021, published 2024)

Tested on: High fat diet + STZ + DOCA (diabetic nephropathy)
Test: Renal lipids (triglyceride, total cholesterol, free fatty acid, phospholipids) by automated analyzer in high fat diet + STZ + DOCA model
Assay type: in vivo, rats
Description: After 1 week of adaptive feeding, the rats were randomly divided into normal control and experimental groups. The experimental group received high-fat diet (consisting of 70% standard laboratory chow, 15% carbohydrates, 10% lard, and 5% yolk powder) to establish an insulin resistance model, while the normal control group receive standard chow. After 4 weeks of high-fat diet feeding, the experimental group rats were induced with diabetes by a single intraperitoneal injection of STZ (35 mg/kg, dissolved in 0.01 M sodium citrate buffer, pH 4.4), while the Normal group rats were injected with the same dose of citrate buffer. At the 7th day after STZ injection, the blood glucose levels of rats were measured to confirm the successful establishment of the model. Rats with blood glucose level ≥250 mg/dl is indicative of the establishment of the disease and selected for further pharmacological studies. All rats were fed their respective diets until the end of the study. Rats were also given 1% NaCl (salt) to drink and on day 28, 0.75 μg […] (DOCA) was subcutaneously infused. Blood pressure and urinary albumin were measured to establish renal hypertension.
All the experimental rats were assigned to the specific treatment group and test drugs were administered orally once daily between 9:00 and 11:00 a.m., continuously for 12 weeks.
At the end of the treatment, all rats were be housed in individual metabolic cages for 24 h to collect urine samples and then sacrifice. Urine samples were centrifuged at 4000×g for 5 min to separate the supernatant. Blood samples are acquired by a small puncture to retro orbital plexus and centrifuged at 4000×g for 10 min at 4° C. to separate the plasma for subsequent experiments. Serum was also separated from the blood for analysis in which anti-coagulant was not added. Thereafter, the kidneys were immediately harvested and weighed. The right kidneys were washed in ice-cold saline solution and fixed in 4% neutral formaldehyde solution for histological examination, whereas the renal cortex of the left kidneys was rinsed with cold isotonic saline and subsequently stored at −70° C. until biochemical estimations.
Measurement of renal lipids viz. Triglyceride, Total cholesterol, Free Fatty Acid, Phospholipids was also done by automated analyzer.

[1] = decrease against High fat diet + STZ + DOCA group
[2] = renal lipids, high fat diet + STZ + DOCA rats, p.o. 12 weeks

In the case of CN(C)C(=N)N=C(N)N [Metformin], the “Free fatty acids, % decrease (↓)” value [1] is reported as 47.5%↓, the “Phospholipids, % decrease (↓)” value [1] is reported as 55.2%↓ and the “Total Cholesterol, % decrease (↓)” value [1] is reported as 30%↓. The “Triglycerides, % decrease (↓)” value [1] was 17.2%↓, the Free fatty acids [2] was 25.34 ± 1.88 mg/mL and the Phospholipids [2] was 4.33 ± 0.023 mg/mL. For the same compound, the “Total Cholesterol” value [2] was 40.33 ± 3.50 mg/dL and the Triglycerides [2] was 122.67 ± 3.56 mg/mL.
